This experiment addresses T1, OGA (Homo sapiens, UniProt O60502).
T1 construct: HEK293 cells inducible for P301L mutant human Tau (isoform 2N4R) were established at Janssen; endogenous in cells; host or cells: HEK293 cells inducible for P301L mutant human Tau (2N4R)
T1 sequence (O60502 1-916): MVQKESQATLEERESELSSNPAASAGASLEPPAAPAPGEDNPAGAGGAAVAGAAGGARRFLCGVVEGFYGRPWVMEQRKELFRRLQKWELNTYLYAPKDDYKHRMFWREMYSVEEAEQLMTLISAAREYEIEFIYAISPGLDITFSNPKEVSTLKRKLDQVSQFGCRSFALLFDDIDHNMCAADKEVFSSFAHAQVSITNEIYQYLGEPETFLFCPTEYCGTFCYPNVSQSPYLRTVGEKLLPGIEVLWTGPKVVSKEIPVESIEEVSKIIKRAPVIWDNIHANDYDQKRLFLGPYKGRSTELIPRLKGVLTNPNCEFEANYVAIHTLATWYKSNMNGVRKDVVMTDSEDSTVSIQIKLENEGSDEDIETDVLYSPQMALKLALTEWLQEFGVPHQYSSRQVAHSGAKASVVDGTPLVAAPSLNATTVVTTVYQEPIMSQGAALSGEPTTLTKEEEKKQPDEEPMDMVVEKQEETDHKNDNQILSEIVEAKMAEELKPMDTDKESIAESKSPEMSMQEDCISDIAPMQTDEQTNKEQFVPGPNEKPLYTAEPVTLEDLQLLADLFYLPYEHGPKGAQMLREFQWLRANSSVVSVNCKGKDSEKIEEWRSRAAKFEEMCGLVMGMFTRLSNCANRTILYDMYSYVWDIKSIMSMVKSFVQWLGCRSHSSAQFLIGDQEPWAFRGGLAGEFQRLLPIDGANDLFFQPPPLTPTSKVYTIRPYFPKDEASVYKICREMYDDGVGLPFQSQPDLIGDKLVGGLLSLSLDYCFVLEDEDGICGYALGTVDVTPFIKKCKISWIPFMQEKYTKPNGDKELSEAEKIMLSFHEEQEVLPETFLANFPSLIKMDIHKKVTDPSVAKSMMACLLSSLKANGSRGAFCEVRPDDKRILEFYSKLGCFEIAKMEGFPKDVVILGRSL
The experiment in a line: OGA cellular assay (ICC detection of O-GlcNAcylated proteins in HEK293 cells inducible for P301L mutant human Tau). The class given is cell-based. In outline:
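HEK293 cells inducible for P301L Tau (2N4R), seeded in low-glucose medium, treated with compound for 6 h at 0.2% DMSO. O-GlcNAc immunostained with CTD110.6 after PFA fixation; 488 nm intensity imaged, Hoechst nuclei counted for toxicity. IC50 by non-linear regression, 200 uM Thiamet G as maximum.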

A word on the Emax: it is the maximal effect, on the per cent scale that the assay sets.

SMILES strings stand for the structures.

For `Cc1cc(C2CCCN(C(C)c3ccc4sc(C)nc4n3)C2)cc(C)n1` (racemic) [Compound 39], for the setting “HEK293, HEK293 cells inducible for P301L mutant human Tau, maximum = Thiamet G 200 uM”, the maximum response (Emax) is 79%. The EC50 (HEK293 cells inducible for P301L mutant human Tau, 6 hours incubation, read-out: Cellular hOGA, pEC50 (converted)) was 63.1 nM.

The values are drawn from US20210115040A1, “OGA INHIBITOR COMPOUNDS” (Janssen Pharmaceutica NV, priority 2018, published 2021).
